Experimental data taken from ChEMBL document CHEMBL1201862, “PubChem BioAssay data set” (2004).
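The compound was tested at five concentrations on cells cultured in 96-well plates, with a 48-hour exposure period. GI50 = concentration required for 50% inhibition of growth.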 The source made the active and inactive calls. No stated cut-off is given here; in the data, active = GI50 up to about 1.1 µM and inactive = higher.

Legend:
Assay in all cases: NCI-60 cell line screen, 48 h
OVCAR-5 = tested on: OVCAR-5
SNB-75 = tested on: SNB-75
COLO 205 = tested on: COLO 205
OVCAR-3 = tested on: OVCAR-3
UACC-257 = tested on: UACC-257
NCI-H522 = tested on: NCI-H522
CCRF-CEM = tested on: CCRF-CEM
NCI/ADR-RES = tested on: NCI/ADR-RES
SN12C = tested on: SN12C
UO-31 = tested on: UO-31
BT-549 = tested on: BT-549
RXF 393 = tested on: RXF 393
SW-620 = tested on: SW-620
SK-MEL-5 = tested on: SK-MEL-5
NCI-H23 = tested on: NCI-H23
KM12 = tested on: KM12
CAKI-1 = tested on: CAKI-1
MOLT-4 = tested on: MOLT-4
M14 = tested on: M14

Structure (SMILES) | GI50 (OVCAR-5) | GI50 (SNB-75) | GI50 (COLO 205) | GI50 (OVCAR-3) | GI50 (UACC-257) | GI50 (NCI-H522) | GI50 (CCRF-CEM) | GI50 (NCI/ADR-RES) | GI50 (SN12C) | GI50 (UO-31) | GI50 (BT-549) | GI50 (RXF 393) | GI50 (SW-620) | GI50 (SK-MEL-5) | GI50 (NCI-H23) | GI50 (KM12) | GI50 (CAKI-1) | GI50 (MOLT-4) | GI50 (M14)
c1ccc(N/N=N/c2ccc(-c3nc4ccccc4[nH]3)cc2)nc1 | 26.3 µM (inactive) | 21.6 µM (inactive) | 27 µM (inactive) | 15 µM (inactive) | 23.2 µM (inactive) | 16.8 µM (inactive) | 2.64 µM (inactive) | 30.3 µM (inactive) | 15.3 µM (inactive) | 19.4 µM (inactive) | 37.5 µM (inactive) | 16.4 µM (inactive) | 17.8 µM (inactive) | 27.6 µM (inactive) | 31.8 µM (inactive) | 13.6 µM (inactive) | 27.9 µM (inactive) | 4.43 µM (inactive) | 37.4 µM (inactive)
CNC(=S)N/N=C/c1cccc(C)n1 | 37.8 µM (inactive) | 37.9 µM (inactive) | 38.2 µM (inactive) | 29.9 µM (inactive) | 32.7 µM (inactive) | 27.2 µM (inactive) | 23.4 µM (inactive) | 23.8 µM (inactive) | 26.4 µM (inactive) | 20.7 µM (inactive) | 23.5 µM (inactive) | 38.5 µM (inactive) | 49.1 µM (inactive) | 25.1 µM (inactive) | 31.4 µM (inactive) | 61.1 µM (inactive) | 47.6 µM (inactive) | 39.8 µM (inactive) | 21.3 µM (inactive)
CNCCCNC1(c2cc3ccccc3s2)CCCCC1 | 14.3 µM (inactive) | 6.17 µM (inactive) | 1.79 µM (inactive) | 12.5 µM (inactive) | 1.76 µM (inactive) | 5.64 µM (inactive) | 1.66 µM (inactive) | 14.9 µM (inactive) | 5.52 µM (inactive) | 2.32 µM (inactive) | 14.6 µM (inactive) | 1.36 µM (inactive) | 12.3 µM (inactive) | 2.21 µM (inactive) | 16.4 µM (inactive) | 5.61 µM (inactive) | 10.1 µM (inactive) | 1.94 µM (inactive) | 3.8 µM (inactive)
CC(=O)O[C@@]12CO[C@@H]1CC(O)[C@@]1(C)C(=O)[C@H](O)C3=C(C)C(O)C[C@@](O)(C(OC(=O)c4ccccc4)C12)C3(C)C (stereo not given in full) | 3.94 µM (inactive) | 0.507 µM (active) | 0.434 µM (active) | 0.454 µM (active) | 0.684 µM (active) | 0.637 µM (active) | 0.454 µM (active) | > 100 µM (inactive) | 2.18 µM (inactive) | 46.1 µM (inactive) | 1.26 µM (inactive) | 25 µM (inactive) | 0.448 µM (active) | 6.58 µM (inactive) | 0.869 µM (active) | 0.558 µM (active) | 24.8 µM (inactive) | 0.759 µM (active) | 2.59 µM (inactive)
O=[N+]([O-])c1ccc(C2Nn3c(nnc3-c3cccc([N+](=O)[O-])c3)S2)cc1 (stereo not given) | > 100 µM (inactive) | > 100 µM (inactive) | > 100 µM (inactive) | > 100 µM (inactive) | > 100 µM (inactive) | > 100 µM (inactive) | 36.8 µM (inactive) | > 100 µM (inactive) | > 100 µM (inactive) | > 100 µM (inactive) | > 100 µM (inactive) | > 100 µM (inactive) | 71.9 µM (inactive) | 53.6 µM (inactive) | > 100 µM (inactive) | > 100 µM (inactive) | > 100 µM (inactive) | 37.8 µM (inactive) | > 100 µM (inactive)
NC(CCC(=O)NC(CSC(=O)N(O)c1ccc(Cl)cc1)C(=O)NCC(=O)O)C(=O)O (stereo not given) | > 0.5 µM (active) | > 0.5 µM (active) | > 0.5 µM (active) | > 0.5 µM (active) | > 0.5 µM (active) | > 0.5 µM (active) | > 0.5 µM (active) | > 0.5 µM (active) | > 0.5 µM (active) | > 0.5 µM (active) | > 0.5 µM (active) | > 0.5 µM (active) | > 0.5 µM (active) | > 0.5 µM (active) | > 0.5 µM (active) | > 0.5 µM (active) | > 0.5 µM (active) | > 0.5 µM (active) | > 0.5 µM (active)
CC(C)c1ccc2c(c1)/C(=C1/Nc3ccccc3C1=O)C(=O)N2 | 27.7 µM (inactive) | 3.4 µM (inactive) | > 100 µM (inactive) | 19 µM (inactive) | 61.8 µM (inactive) | 25.5 µM (inactive) | 27.3 µM (inactive) | 17 µM (inactive) | 20.9 µM (inactive) | 6.5 µM (inactive) | 18.1 µM (inactive) | 1.42 µM (inactive) | 43.3 µM (inactive) | 27.2 µM (inactive) | 24.4 µM (inactive) | 0.0973 µM (active) | 14.3 µM (inactive) | 22.1 µM (inactive) | 33.6 µM (inactive)
COc1cc(C2c3cc4c(cc3OC(N3CCCC3)C2C)OCO4)cc(OC)c1OC (stereo not given) | 1.09 µM (active) | 0.443 µM (active) | 0.433 µM (active) | 0.221 µM (active) | 1.07 µM (active) | 0.548 µM (active) | 0.502 µM (active) | 0.316 µM (active) | 0.757 µM (active) | 1.91 µM (inactive) | 0.515 µM (active) | 0.286 µM (active) | 0.366 µM (active) | 0.344 µM (active) | 0.548 µM (active) | 0.322 µM (active) | 0.664 µM (active) | 1.08 µM (active) | 0.34 µM (active)
Cc1cc2[nH]c(=NS(=O)(=O)c3cc(C)c(Cl)cc3S)[nH]c2cc1C | > 100 µM (inactive) | > 100 µM (inactive) | > 100 µM (inactive) | > 100 µM (inactive) | > 100 µM (inactive) | > 100 µM (inactive) | 21.4 µM (inactive) | 91.4 µM (inactive) | > 100 µM (inactive) | 84.5 µM (inactive) | > 100 µM (inactive) | > 100 µM (inactive) | 43.4 µM (inactive) | 32.7 µM (inactive) | > 100 µM (inactive) | 46.2 µM (inactive) | > 100 µM (inactive) | 21.5 µM (inactive) | 86.5 µM (inactive)
NCCc1c[nH]c2ccc(OC(=O)C(=O)O)cc12 | > 100 µM (inactive) | > 100 µM (inactive) | > 100 µM (inactive) | > 100 µM (inactive) | > 100 µM (inactive) | > 100 µM (inactive) | > 100 µM (inactive) | > 100 µM (inactive) | > 100 µM (inactive) | > 100 µM (inactive) | > 100 µM (inactive) | > 100 µM (inactive) | > 100 µM (inactive) | > 100 µM (inactive) | > 100 µM (inactive) | > 100 µM (inactive) | > 100 µM (inactive) | > 100 µM (inactive) | > 100 µM (inactive)
Cc1ccc([N+](=O)[O-])cc1S(=O)(=O)Nc1ccc(C2=NN(c3ccc([N+](=O)[O-])cc3[N+](=O)[O-])C(c3ccccc3O)C2)cc1 (stereo not given) | > 100 µM (inactive) | 40.4 µM (inactive) | 32.4 µM (inactive) | 24.9 µM (inactive) | 25.2 µM (inactive) | 21 µM (inactive) | 25 µM (inactive) | 27.9 µM (inactive) | 18 µM (inactive) | 24.5 µM (inactive) | 28.2 µM (inactive) | 40.6 µM (inactive) | 63.7 µM (inactive) | 20 µM (inactive) | 19.6 µM (inactive) | 37 µM (inactive) | 33.8 µM (inactive) | 12.7 µM (inactive) | 34.2 µM (inactive)
O=C(/C=C/C(Cl)(Cl)Cl)Nc1ccc(Cl)cc1 | 13.5 µM (inactive) | 3.69 µM (inactive) | 2.19 µM (inactive) | 6.89 µM (inactive) | 18.3 µM (inactive) | 0.514 µM (active) | 1.56 µM (inactive) | 2.45 µM (inactive) | 7.24 µM (inactive) | 0.698 µM (active) | 17.2 µM (inactive) | 3.01 µM (inactive) | 3.38 µM (inactive) | 11.1 µM (inactive) | 3.36 µM (inactive) | 2.05 µM (inactive) | 0.8 µM (active) | 1.64 µM (inactive) | 4.62 µM (inactive)
OCC1C2CCC3(OCCO3)C12 (stereo not given) | > 100 µM (inactive) | > 100 µM (inactive) | > 100 µM (inactive) | > 100 µM (inactive) | > 100 µM (inactive) | > 100 µM (inactive) | > 100 µM (inactive) | > 100 µM (inactive) | > 100 µM (inactive) | 15.4 µM (inactive) | 20.6 µM (inactive) | > 100 µM (inactive) | > 100 µM (inactive) | > 100 µM (inactive) | 18.2 µM (inactive) | > 100 µM (inactive) | > 100 µM (inactive) | > 100 µM (inactive) | > 100 µM (inactive)
OCCN(C1=NCCN1)/[N+](=C/c1ccc(Cl)cc1)[CH-]c1ccc(Cl)cc1 | > 100 µM (inactive) | > 100 µM (inactive) | 62.4 µM (inactive) | > 100 µM (inactive) | > 100 µM (inactive) | 84.3 µM (inactive) | 61.8 µM (inactive) | > 100 µM (inactive) | > 100 µM (inactive) | > 100 µM (inactive) | > 100 µM (inactive) | 15.5 µM (inactive) | > 100 µM (inactive) | 23.8 µM (inactive) | > 100 µM (inactive) | > 100 µM (inactive) | > 100 µM (inactive) | 26.5 µM (inactive) | 83.9 µM (inactive)
CC(NNC(=O)c1cc[n+]([BH2-]C#N)cc1)c1cccc(C(F)(F)F)c1 (stereo not given) | > 100 µM (inactive) | > 100 µM (inactive) | > 100 µM (inactive) | 89.3 µM (inactive) | 68.2 µM (inactive) | 4.55 µM (inactive) | > 100 µM (inactive) | > 100 µM (inactive) | > 100 µM (inactive) | 42 µM (inactive) | > 100 µM (inactive) | 60.1 µM (inactive) | > 100 µM (inactive) | 72.1 µM (inactive) | 27.4 µM (inactive) | > 100 µM (inactive) | > 100 µM (inactive) | 46.7 µM (inactive) | 37.9 µM (inactive)
